Source: patent US12251382B2, “Substituted amino-pyrimidine compound for use in a method for treatment and prevention of multiple sclerosis” (Merck Patent GmbH, priority 2018, dated 2025)

Assays:
[1] = tested on: BCR- and FcR-mediated signalling; settings: variety of human cellular assays; cited from earlier work
[2] = tested on: human patients suffering from relapsing multiple sclerosis (RMS); assay: Phase II RMS study: brain MRI (Gd+ T1 lesions, T2 lesions); type: in vivo; design: key to Gd+ T1 lesion rate (subject level), Median / Gd+ T1 Lesion rate, adjusted (negative binomial model): number of Gd+ T1 lesions per scan; settings: for New or enlarging T2 lesion rate (subject level), Mean ± SD: Weeks 12-24; for Difference in LS means of CFB in cube root of volume of T2 lesions vs placebo: week 24, MMRM
Method: The assessing Investigator and central MRI reader were treatment blinded.
The protocol specified that subjects self-administered the IMP at a set time each day (every 12 hours ±2 hours). Subjects were to take their daily dose more than 1 hour prior to a meal or snack and more than 2 hours after a meal or snack. Clear fluids were allowed at any time. On trial visit days, the IMP was to be administered during the trial visit after the scheduled trial visit procedures (other than post-treatment PK/PD sampling) are completed.
Stratification occurred by region (USA or Western Europe, Eastern Europe and BTKO capable, Eastern Europe and not BTKO capable, and RoW). For the first 7 days, Tecfidera was administered orally at 120 mg twice daily. Following this and for the duration of treatment, Tecfidera was administered orally at 240 mg twice daily.
The protocol specified that MRI scans were to be performed at Screening, at 4-week intervals from Week 12 to 24, and at the End of Treatment Visit at Week 48 (including for subjects receiving Tecfidera who choose to enter the OLE Period). […] If a subject discontinued the study more than 4 weeks after his or her most recent MRI, the protocol specified that an MRI may be obtained at the 4-week Safety Follow-up Visit. The Screening MRI scan was to be acquired before randomization and dosing to allow for the readouts to be read by the central MRI reader (approximately 7 days).
Gadolinium was used to enhance T1-weighted lesions and to optimize clarity and accuracy of reporting. As gadolinium is excreted renally, subjects with acute renal insufficiency (eGFR <45 mL/min/1.73 m^2) will be excluded from the trial.
The protocol specified that brain MRI scans were performed according to a standardized imaging protocol before and after the administration of single-dose gadolinium. Images were assessed and reported by an independent, blinded, centralized MRI reading service, provided by NeuroRx Research. The assessment was performed in the absence of clinical information. Further details, including the scans required and the optimal MRI workflow, were provided in a separate Imaging Manual provided to each trial site by NeuroRx Research. All MRI images were reviewed and reported locally by a radiologist for safety. The local report was to contain only non-MS pathology and was to be provided to the Treating Investigator.
The primary endpoint was the total number of gadolinium-enhancing T1 lesions at Week 12, 16, 20, and 24. The primary analysis was a comparison of each evobrutinib dose arm versus placebo based on this endpoint, with a supportive test for dose-response. Secondary Endpoints
Other covariates were permitted to be considered. […] Descriptive statistics for the total number of Gd+ T1 lesions, at Week 12, 16, 20, and 24, are provided for each treatment group.
Estimation of mean per-scan number of Gd+ T1 lesions at Weeks 12, 16, 20, and 24, for each treatment group, was based on the NB model. In the analysis of each secondary endpoint, other covariates were permitted to be included in the model.
Primary and secondary efficacy endpoints were analysed based on the modified intention-to-treat (mITT) analysis set, consisting of all randomized patients with at least one available baseline and one post-baseline MRI assessment. […] For each endpoint, rate ratio (RR; null-hypothesis RR=1.0) adjusted for baseline disease activity was reported together with associated 95% CI and p-value. The T2 lesion endpoint was analysed similarly. Dose-response relationships between evobrutinib treatment dose and primary and key secondary endpoints were assessed for linear and monotonic trend. The analysis of CFB in cube root of volume of T2 lesions at Week 24 was based on a mixed-effect model for repeated measures, with fixed effects for treatment, week of visit, and treatment-by-week interaction, random effect for subject, and adjustment for baseline cube root of lesion volume. CFB in SF-36 score at Week 24 was analysed similarly. […]

[3] = 25 mg QD, listed as evobrutinib
[4] = 75 mg BID, listed as evobrutinib

For C=CC(=O)N1CCC(CNc2ncnc(N)c2-c2ccc(Oc3ccccc3)cc2)CC1 [Evobrutinib, 1-(4-(((6-amino-5-(4-phenoxyphenyl)pyrimidin-4-yl)amino)methyl)piperidin-1-yl)prop-2-en-1-one], the “BCR- and FcR-mediated signalling” value [1] is listed as “potently inhibit”, the “Change in volume of T2 lesions from baseline to week 24, Mean ± SD” value (from here on “Change in volume of T2 lesions … Mean ± SD”) ([2]; 25 mg QD) is listed as 0.93 ± 1.85 cc and the “Change in volume of T2 lesions from baseline to week 24, Median” value (shortened to “Change in volume of T2 lesions … Median”) ([2]; 25 mg QD) is listed as 0.05 cc. For the same molecule, the “Gd+ T1 Lesion rate, adjusted (negative binomial model)” value (“Gd+ T1 Lesion rate, adjusted” below) ([2]; 25 mg QD) was 1.09, the “Gd+ T1 lesion rate (subject level), Median” value (“Gd+ T1 lesion rate … Median” below) ([2]; 25 mg QD) was 0.25 and the “Gd+ T1 lesion rate (subject level; count per scan, weeks 12-24), Mean ± SD” value ([2]; 25 mg QD) was 1.31 ± 3.13. The “Total Number of New or Enlarging T2 Lesions at Week 24, Mean ± SD” value (“Total Number … at Week 24, Mean ± SD” for short) ([2]; 25 mg QD) was 6.52 ± 11.57, the “Total number of Gd+ T1 lesions at Weeks 12, 16, 20, 24, Mean ± SD” value (shortened to “Total number of Gd+ T1 lesions … Mean ± SD”) ([2]; 25 mg QD) was 5.23 ± 12.52 and the “Total number of Gd+ T1 lesions at Weeks 12, 16, 20, 24, Median (min-max)” value (from here on “Total number of Gd+ T1 lesions … (min-max)”) ([2]; 25 mg QD) was 1 (0-76). The “New or enlarging T2 lesion rate (subject level), Mean ± SD” value ([2]; 25 mg QD) was 2.08 ± 4.19, the “Difference in LS means of CFB in cube root of volume of T2 lesions vs placebo” value (shortened to “Difference in LS means of CFB”) ([2]; 25 mg QD) was 0.05 cm and the “Change in volume of T2 lesions … Median” value [2, 3] was “increased”. For the same molecule, the “Gd+ T1 lesion rate (subject level; count per scan, weeks 12-24), Mean ± SD” value [2, 3] was 1.31±3.13, the “Change in volume of T2 lesions … Mean ± SD” value ([2]; 75 mg BID) was 0.06 ± 0.50 cc and the “Change in volume of T2 lesions … Median” value ([2]; 75 mg BID) was −0.02 cc. For the same molecule, the “Gd+ T1 Lesion rate, adjusted” value ([2]; 75 mg BID) was 0.34, the “Gd+ T1 lesion rate … Median” value ([2]; 75 mg BID) was 0.0 and the “Gd+ T1 lesion rate (subject level; count per scan, weeks 12-24), Mean ± SD” value ([2]; 75 mg BID) was 0.35 ± 0.96. For the same molecule, the “Total Number … at Week 24, Mean ± SD” value ([2]; 75 mg BID) was 2.26 ± 4.72, the “Total number of Gd+ T1 lesions … Mean ± SD” value ([2]; 75 mg BID) was 1.39 ± 3.85 and the “Total number of Gd+ T1 lesions … (min-max)” value ([2]; 75 mg BID) was 0 (0-25). The “New or enlarging T2 lesion rate (subject level), Mean ± SD” value ([2]; 75 mg BID) was 0.73 ± 1.57, the “New or enlarging T2 lesion rate (subject level), Mean ± SD” value [2, 4] was 0.73±1.57 and the “Difference in LS means of CFB” value ([2]; 75 mg BID) was −0.35 cm. The “Gd+ T1 lesion rate (subject level; count per scan, weeks 12-24), Mean ± SD” value [2, 4] was 0.35±0.96, the “Change in volume of T2 lesions … Mean ± SD” value ([2]; 75 mg QD) was 0.01 ± 0.57 cc and the “Change in volume of T2 lesions … Median” value ([2]; 75 mg QD) was −0.01 cc. For the same molecule, the “Gd+ T1 Lesion rate, adjusted” value ([2]; 75 mg QD) was 0.27, the “Gd+ T1 lesion rate … Median” value ([2]; 75 mg QD) was 0.0 and the “Gd+ T1 lesion rate (subject level; count per scan, weeks 12-24), Mean ± SD” value ([2]; 75 mg QD) was 0.42 ± 1.17. For the same molecule, the “Total Number … at Week 24, Mean ± SD” value ([2]; 75 mg QD) was 3.57 ± 10.82, the “Total number of Gd+ T1 lesions … Mean ± SD” value ([2]; 75 mg QD) was 1.69 ± 4.69 and the “Total number of Gd+ T1 lesions … (min-max)” value ([2]; 75 mg QD) was 0 (0-27). For the same molecule, the “Total number of Gd+ T1 lesions versus placebo” value ([2]; 75 mg QD and 75 mg BID, Weeks 12, 16, 20 and 24) was “significantly reduced Gd+ T1 lesions versus placebo”, the “New or enlarging T2 lesion rate (subject level), Mean ± SD” value ([2]; 75 mg QD) was 0.89 ± 2.71 and the “Difference in LS means of CFB” value ([2]; 75 mg QD) was −0.35 cm. For the same molecule, the “Gd+ T1 lesion rate (subject level; count per scan, weeks 12-24), Mean ± SD” value ([2]; 75 mg QD, listed as evobrutinib) was 0.42±1.17, the “Total Gd+ T1 lesions over 4 scans in an outlier patient” value ([2]; one patient, 25 mg QD) was 76 and the “Dose response of Gd+ T1 lesion count” value ([2]; weeks 12-24, p<0.01) was “significant dose response was observed”.
